In patent US9073813B2, “Process for the preparation of protoescigenin” (INSTYTUT FARMACEUTYCZNY, priority 2011, dated 2015):

Test: Thermal stability of the crystalline form (X-ray diffraction over temperature loop 25° C.→30 min at 110° C.→25° C.)
Type: physicochemical
Method: Protoescigenin monohydrate is stable under ambient conditions, up to 100° C. X-ray diffraction measurements of monohydrate were done at the following temperature loop: 25° C.→30 min at 110° C.→25° C.
X-ray powder diffraction (XRPD) studies were performed by means of the MiniFlex diffractometer (Rigaku Coporation, Tokyo Japan) using CuKα radiation (λ=1.54056 Å) with following parameters: • Scanning range 2θ: from 3° to 40° • Scanning speed: 0.5°/min • Measurement step: 2θ: 0.02° • Measurement temperature: ambient temperature • Detector: scintillator

CC1(C)CC2C3=CCC4[C@@]5(C)CC[C@H](O)[C@](C)(CO)C5CC[C@@]4(C)[C@]3(C)C[C@@H](O)[C@@]2(CO)[C@@H](O)[C@@H]1O (some centres unmarked) [Protoescigenin monohydrate, protoescigenin monohydrate]
form change on heating (X-ray diffraction) (after heating for 30 min at 110° C., loop 25° C.→110° C.→25° C.): changes to a different form, called form V
stable under ambient conditions, up to (temperature) (solid state, ambient conditions): up to 100 °C
